ChEMBL document CHEMBL2074457, “LST-2, a human liver-specific organic anion transporter, determines methotrexate sensitivity in gastrointestinal cancers” (Gastroenterology, 2001)

Legend:
[1] = target: T1, Solute carrier organic anion transporter family member 1B3 (Homo sapiens, UniProt Q9NPD5); experiment: (§1) TP_TRANSPORTER: uptake in Xenopus laevis oocytes; format: functional, cell-based, Oocyte; details: for Km: Xenopus laevis oocytes expressing SLCO1B3 (OATP1B3); for Activity: oocyte
T1 sequence (Q9NPD5 whole entry): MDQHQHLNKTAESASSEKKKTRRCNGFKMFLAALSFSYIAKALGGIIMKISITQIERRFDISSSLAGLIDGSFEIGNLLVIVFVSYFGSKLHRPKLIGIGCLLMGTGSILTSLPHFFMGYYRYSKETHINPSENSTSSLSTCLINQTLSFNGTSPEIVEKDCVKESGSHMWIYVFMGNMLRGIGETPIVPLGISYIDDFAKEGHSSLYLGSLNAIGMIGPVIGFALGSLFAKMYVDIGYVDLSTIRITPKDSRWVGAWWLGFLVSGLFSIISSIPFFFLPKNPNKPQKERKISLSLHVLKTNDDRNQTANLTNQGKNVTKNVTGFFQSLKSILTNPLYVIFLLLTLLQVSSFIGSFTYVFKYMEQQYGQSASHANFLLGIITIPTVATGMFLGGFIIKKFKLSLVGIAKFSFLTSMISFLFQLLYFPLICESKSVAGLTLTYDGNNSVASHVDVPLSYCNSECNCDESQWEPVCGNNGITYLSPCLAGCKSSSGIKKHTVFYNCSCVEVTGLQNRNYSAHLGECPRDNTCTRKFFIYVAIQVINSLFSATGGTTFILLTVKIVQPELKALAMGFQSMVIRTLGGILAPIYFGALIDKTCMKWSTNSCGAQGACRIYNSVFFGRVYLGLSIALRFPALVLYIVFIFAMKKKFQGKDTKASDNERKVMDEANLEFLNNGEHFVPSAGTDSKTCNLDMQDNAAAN

[2] = target: T2, Solute carrier organic anion transporter family member 1B1 (Homo sapiens, UniProt Q9Y6L6); experiment: as §1; format: functional, cell-based; details: oocyte
T2 sequence (Q9Y6L6 whole entry): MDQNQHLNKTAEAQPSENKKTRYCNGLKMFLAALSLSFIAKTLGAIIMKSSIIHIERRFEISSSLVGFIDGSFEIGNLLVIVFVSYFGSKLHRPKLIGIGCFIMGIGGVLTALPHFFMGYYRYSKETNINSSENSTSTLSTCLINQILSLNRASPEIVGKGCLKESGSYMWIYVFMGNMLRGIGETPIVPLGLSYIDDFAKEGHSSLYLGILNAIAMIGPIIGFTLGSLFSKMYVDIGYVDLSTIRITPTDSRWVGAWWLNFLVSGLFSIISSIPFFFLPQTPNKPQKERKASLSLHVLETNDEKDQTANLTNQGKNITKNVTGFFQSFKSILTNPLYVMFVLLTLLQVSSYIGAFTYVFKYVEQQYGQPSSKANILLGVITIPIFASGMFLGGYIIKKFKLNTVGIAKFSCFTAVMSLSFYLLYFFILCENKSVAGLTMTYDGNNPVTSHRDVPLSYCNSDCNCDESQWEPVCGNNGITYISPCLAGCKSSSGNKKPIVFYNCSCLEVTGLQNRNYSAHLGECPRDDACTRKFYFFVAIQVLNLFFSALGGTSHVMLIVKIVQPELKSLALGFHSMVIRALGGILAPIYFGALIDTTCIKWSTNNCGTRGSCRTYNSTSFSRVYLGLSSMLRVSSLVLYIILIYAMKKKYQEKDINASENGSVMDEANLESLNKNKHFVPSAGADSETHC

[3] = target: T1, Solute carrier organic anion transporter family member 1B3; experiment: TP_TRANSPORTER: inhibition of MTX uptake (MTX: 1 uM, BSP: 100 uM) in Xenopus laevis oocytes; format: functional, cell-based; details: oocyte

Structure (SMILES)	Km [1]	Activity [1]	further results
CN(Cc1cnc2nc(N)nc(N)c2n1)c1ccc(C(=O)N[C@@H](CCC(=O)O)C(=O)O)cc1 [METHOTREXATE]	24.7 µM	–	Activity [2]: substrate [+]
CC1(C)SSC(C)(C)[C@@H](NC(=O)[C@@H](N)Cc2ccc(O)cc2)C(=O)NCC(=O)N[C@@H](Cc2ccccc2)C(=O)N[C@H]1C(=O)O	–	is not a substrate [-]	–
O=C1OC(c2ccc(O)c(S(=O)(=O)[O-])c2)(c2ccc(O)c(S(=O)(=O)[O-])c2)c2c(Br)c(Br)c(Br)c(Br)c21.[Na+].[Na+] [SULFOBROMOPHTHALEIN SODIUM]	–	–	Activity [3]: inhibitor [+]
N[C@@H](Cc1cc(I)c(Oc2ccc(O)c(I)c2)c(I)c1)C(=O)O [LIOTHYRONINE]	6.4 µM	–	–
C[C@]12CC[C@H](OS(=O)(=O)O)CC1=CC[C@@H]1[C@@H]2CC[C@]2(C)C(=O)CC[C@@H]12 [PRASTERONE SULFURIC ACID]	–	substrate [+]	–
